Literature values in patent publication US9764130B2, “Transdermal systems for the delivery of therapeutic agents including granisetron using iontophoresis” (Teva Pharmaceuticals International GmbH, priority 2005, dated 2017).

Settings: transdermal iontophoresis from anode pad; hairless rat animal model; AAPS 2003/2004 abstracts

time within which a therapeutic dosage is achieved with iontophoresis: two
Compound: CN1C2CCCC1CC(NC(=O)c1nn(C)c3ccccc13)C2 (stereo not shown) [granisetron]
